Measured values from patent publication US7709636B2, “Pyrazole sulfonylurea compound and herbicide” (Nissan Chemical Industries, Ltd., priority 2004, dated 2010).

Tests used:
Setaria viridis [1] = assay: Herbicidal effect test by foliage treatment; type: in vivo; settings: 1.6 g/a; foliage treatment after growth of 14 days; 3 weeks after treatment
How it was run: (§1)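 Plants grow from seed under about 1.5 cm of sterilized diluvial soil for 14 days at 25 to 30° C in a greenhouse. A small sprayer applies diluted wettable powder evenly to the foliage, and each species is scored three weeks later.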

[2] = system: Triticum aestivum (wheat); assay: Herbicidal effect test by foliage treatment; type: in vivo; settings: 1.6 g/a; foliage treatment after growth of 14 days; 3 weeks after treatment
How it was run: as §1

Chenopodium album [3] = assay: Herbicidal effect test by foliage treatment; type: in vivo; settings: 1.6 g/a; foliage treatment after growth of 14 days; 3 weeks after treatment
How it was run: as §1

Avena fatua [4] = assay: Herbicidal effect test by foliage treatment; type: in vivo; settings: 1.6 g/a; foliage treatment after growth of 14 days; 3 weeks after treatment
How it was run: as §1

Black-grass [5] = assay: Herbicidal effect test by foliage treatment; type: in vivo; settings: 1.6 g/a; foliage treatment after growth of 14 days; 3 weeks after treatment
How it was run: as §1

Polygonum blumei [6] = assay: Herbicidal effect test by foliage treatment; type: in vivo; settings: 1.6 g/a; foliage treatment after growth of 14 days; 3 weeks after treatment
How it was run: as §1

Echinochloa crus-galli [7] = assay: Herbicidal effect test by foliage treatment; type: in vivo; settings: 1.6 g/a; foliage treatment after growth of 14 days; 3 weeks after treatment
How it was run: as §1

Abutilon avicennae [8] = assay: Herbicidal effect test by foliage treatment; type: in vivo; settings: 1.6 g/a; foliage treatment after growth of 14 days; 3 weeks after treatment
How it was run: as §1

corn (Zea mays) [9] = assay: Herbicidal effect test by foliage treatment; type: in vivo; settings: 1.6 g/a; foliage treatment after growth of 14 days; 3 weeks after treatment
How it was run: as §1

soybean (Glycine max) [10] = assay: Herbicidal effect test by foliage treatment; type: in vivo; settings: 1.6 g/a; foliage treatment after growth of 14 days; 3 weeks after treatment
How it was run: as §1

Amaranthus retroflexus [11] = assay: Herbicidal effect test by foliage treatment; type: in vivo; settings: 1.6 g/a; foliage treatment after growth of 14 days; 3 weeks after treatment
How it was run: as §1

Beta vulgaris (beet) [12] = assay: Herbicidal effect test by foliage treatment; type: in vivo; settings: 1.6 g/a; foliage treatment after growth of 14 days; 3 weeks after treatment
How it was run: as §1

Stellaria media [13] = assay: Herbicidal effect test by foliage treatment; type: in vivo; settings: 1.6 g/a; foliage treatment after growth of 14 days; 3 weeks after treatment
How it was run: as §1

Ambrosia elatior [14] = assay: Herbicidal effect test by foliage treatment; type: in vivo; settings: 1.6 g/a; foliage treatment after growth of 14 days; 3 weeks after treatment
How it was run: as §1

Digitaria adscendes [15] = assay: Herbicidal effect test by foliage treatment; type: in vivo; settings: 1.6 g/a; foliage treatment after growth of 14 days; 3 weeks after treatment
How it was run: as §1

Setaria viridis [16] = assay: Herbicidal effect test by soil treatment; type: in vivo; settings: 1.6 g/a, 3 weeks after treatment
How it was run: (§2)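 Sow seed in sterilized diluvial soil; cover with about 1.5 cm soil; spray surface uniformly with wettable powder diluted in water to the predetermined amount; rate herbicidal effect after 3 weeks.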

[17] = system: Triticum aestivum (wheat); assay: Herbicidal effect test by soil treatment; type: in vivo; settings: 1.6 g/a, 3 weeks after treatment
How it was run: as §2

Chenopodium album [18] = assay: Herbicidal effect test by soil treatment; type: in vivo; settings: 1.6 g/a, 3 weeks after treatment
How it was run: as §2

Avena fatua [19] = assay: Herbicidal effect test by soil treatment; type: in vivo; settings: 1.6 g/a, 3 weeks after treatment
How it was run: as §2

Black-grass [20] = assay: Herbicidal effect test by soil treatment; type: in vivo; settings: 1.6 g/a, 3 weeks after treatment
How it was run: as §2

Polygonum blumei [21] = assay: Herbicidal effect test by soil treatment; type: in vivo; settings: 1.6 g/a, 3 weeks after treatment
How it was run: as §2

Echinochloa crus-galli [22] = assay: Herbicidal effect test by soil treatment; type: in vivo; settings: 1.6 g/a, 3 weeks after treatment
How it was run: as §2

Abutilon avicennae [23] = assay: Herbicidal effect test by soil treatment; type: in vivo; settings: 1.6 g/a, 3 weeks after treatment
How it was run: as §2

corn (Zea mays) [24] = assay: Herbicidal effect test by soil treatment; type: in vivo; settings: 1.6 g/a, 3 weeks after treatment
How it was run: as §2

soybean (Glycine max) [25] = assay: Herbicidal effect test by soil treatment; type: in vivo; settings: 1.6 g/a, 3 weeks after treatment
How it was run: as §2

Amaranthus retroflexus [26] = assay: Herbicidal effect test by soil treatment; type: in vivo; settings: 1.6 g/a, 3 weeks after treatment
How it was run: as §2

Beta vulgaris (beet) [27] = assay: Herbicidal effect test by soil treatment; type: in vivo; settings: 1.6 g/a, 3 weeks after treatment
How it was run: as §2

Stellaria media [28] = assay: Herbicidal effect test by soil treatment; type: in vivo; settings: 1.6 g/a, 3 weeks after treatment
How it was run: as §2

Ambrosia elatior [29] = assay: Herbicidal effect test by soil treatment; type: in vivo; settings: 1.6 g/a, 3 weeks after treatment
How it was run: as §2

Digitaria adscendes [30] = assay: Herbicidal effect test by soil treatment; type: in vivo; settings: 1.6 g/a, 3 weeks after treatment
How it was run: as §2

direct sown rice [31] = assay: Herbicidal effect test by soil treatment; type: in vivo, Oryza sativa; settings: 1.6 g/a, 3 weeks after treatment
How it was run: as §2

Echinochloa crus-galli [32] = assay: Herbicidal effect test in submerged condition by treatment before weed-generation (1); type: in vivo; settings: 0.64 g/a, water surface treated on day of sowing, 3 weeks after treatment
How it was run: (§3)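 Steps: flood alluvial soil to 4 cm; sow weed seeds; transplant 2.5-leaf rice seedlings; same day treat water surface with water-diluted wettable powder at set formulation amount; keep in greenhouse at 25 to 30° C; score injury on 0–5 scale at 3 weeks.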

Monochoria vaginalis [33] = assay: as above; type: in vivo; settings: 0.64 g/a, water surface treated on day of sowing, 3 weeks after treatment
How it was run: as §3

Scirpus juncoides [34] = assay: as above; type: in vivo; settings: 0.64 g/a, water surface treated on day of sowing, 3 weeks after treatment
How it was run: as §3

Echinochloa crus-galli [35] = assay: Herbicidal effect test in submerged condition by treatment during weed-growth stage (1); type: in vivo; settings: 0.64 g/a, treated at 1st to 2nd leaf stage, 3 weeks after treatment
How it was run: (§4)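 Paddy-soil pots flooded to 4 cm water depth were sown and grown in a greenhouse at 25 to 30° C until weeds reached 1st to 2nd leaf stage. A wettable powder diluted in water to a predetermined formulation amount was applied to the water surface. Herbicidal effect was scored 3 weeks after treatment against set criteria.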

Monochoria vaginalis [36] = assay: as above; type: in vivo; settings: 0.64 g/a, treated at 1st to 2nd leaf stage, 3 weeks after treatment
How it was run: as §4

Scirpus juncoides [37] = assay: as above; type: in vivo; settings: 0.64 g/a, treated at 1st to 2nd leaf stage, 3 weeks after treatment
How it was run: as §4

direct sown rice [38] = assay: Herbicidal effect test by foliage treatment; type: in vivo, Oryza sativa; settings: 1.6 g/a; foliage treatment after growth of 14 days; 3 weeks after treatment
How it was run: as §1

SMILES: COc1cc(OC)nc(NC(=O)NS(=O)(=O)c2c(C3=NOCC(C)(CI)O3)c(C)nn2C)n1 (centres unmarked) [Compound 8, N-((4,6-dimethoxypyrimidin-2-yl)aminocarbonyl)-4-(5-iodomethyl-5-methyl-5H,6H-1,4,2-dioxadin-3-yl)-1,3-dimethylpyrazole-5-sulfonamide]
- herbicidal effect, E: Setaria viridis (Setaria viridis [1]): 4 (Herbicidal rate 70% or more and less than 90%)
- herbicidal effect, e: Triticum aestivum (wheat) [2]: 1 (Herbicidal rate 5% or more and less than 20%)
- herbicidal effect, K: Chenopodium album (Chenopodium album [3]): 4 (Herbicidal rate 70% or more and less than 90%)
- herbicidal effect, F: Avena fatua (Avena fatua [4]): 1 (Herbicidal rate 5% or more and less than 20%)
- herbicidal effect, G: Black-grass (Black-grass [5]): 0 (Herbicidal rate 5% or less (little effect))
- herbicidal effect, L: Polygonum blumei (Polygonum blumei [6]): 4 (Herbicidal rate 70% or more and less than 90%)
- herbicidal effect, A: Echinochloa crus-galli (Echinochloa crus-galli [7]): 4 (Herbicidal rate 70% or more and less than 90%)
- herbicidal effect, H: Abutilon avicennae (Abutilon avicennae [8]): 5 (Herbicidal rate 90% or more (almost complete death))
- herbicidal effect, b: corn (Zea mays) (corn (Zea mays) [9]): 4 (Herbicidal rate 70% or more and less than 90%)
- herbicidal effect, c: soybean (Glycine max) (soybean (Glycine max) [10]): 4 (Herbicidal rate 70% or more and less than 90%)
- herbicidal effect, J: Amaranthus retroflexus (Amaranthus retroflexus [11]): 4 (Herbicidal rate 70% or more and less than 90%)
- herbicidal effect, f: Beta vulgaris (beet) (Beta vulgaris (beet) [12]): 4 (Herbicidal rate 70% or more and less than 90%)
- herbicidal effect, M: Stellaria media (Stellaria media [13]): 4 (Herbicidal rate 70% or more and less than 90%)
- herbicidal effect, I: Ambrosia elatior (Ambrosia elatior [14]): 4 (Herbicidal rate 70% or more and less than 90%)
- herbicidal effect, D: Digitaria adscendes (Digitaria adscendes [15]): 3 (Herbicidal rate 40% or more and less than 70%)
- herbicidal effect, E: Setaria viridis (Setaria viridis [16]): 0 (Herbicidal rate 5% or less (little effect))
- herbicidal effect, e: Triticum aestivum (wheat) [17]: 1 (Herbicidal rate 5% or more and less than 20%)
- herbicidal effect, K: Chenopodium album (Chenopodium album [18]): 2 (Herbicidal rate 20% or more and less than 40%)
- herbicidal effect, F: Avena fatua (Avena fatua [19]): 0 (Herbicidal rate 5% or less (little effect))
- herbicidal effect, G: Black-grass (Black-grass [20]): 3 (Herbicidal rate 40% or more and less than 70%)
- herbicidal effect, L: Polygonum blumei (Polygonum blumei [21]): 5 (Herbicidal rate 90% or more (almost complete death))
- herbicidal effect, A: Echinochloa crus-galli (Echinochloa crus-galli [22]): 1 (Herbicidal rate 5% or more and less than 20%)
- herbicidal effect, H: Abutilon avicennae (Abutilon avicennae [23]): 0 (Herbicidal rate 5% or less (little effect))
- herbicidal effect, b: corn (Zea mays) (corn (Zea mays) [24]): 0 (Herbicidal rate 5% or less (little effect))
- herbicidal effect, c: soybean (Glycine max) (soybean (Glycine max) [25]): 0 (Herbicidal rate 5% or less (little effect))
- herbicidal effect, J: Amaranthus retroflexus (Amaranthus retroflexus [26]): 5 (Herbicidal rate 90% or more (almost complete death))
- herbicidal effect, f: Beta vulgaris (beet) (Beta vulgaris (beet) [27]): 2 (Herbicidal rate 20% or more and less than 40%)
- herbicidal effect, M: Stellaria media (Stellaria media [28]): 4 (Herbicidal rate 70% or more and less than 90%)
- herbicidal effect, I: Ambrosia elatior (Ambrosia elatior [29]): 5 (Herbicidal rate 90% or more (almost complete death))
- herbicidal effect, D: Digitaria adscendes (Digitaria adscendes [30]): 3 (Herbicidal rate 40% or more and less than 70%)
- herbicidal effect, d: direct sown rice (direct sown rice [31]): 2 (Herbicidal rate 20% or more and less than 40%)
- herbicidal effect, A: Echinochloa crus-galli (Echinochloa crus-galli [32]): 3 (Herbicidal rate 40% or more and less than 70%)
- herbicidal effect, C: Monochoria vaginalis (Monochoria vaginalis [33]): 5 (Herbicidal rate 90% or more (almost complete death))
- herbicidal effect, B: Scirpus juncoides (Scirpus juncoides [34]): 4 (Herbicidal rate 70% or more and less than 90%)
- herbicidal effect, A: Echinochloa crus-galli (Echinochloa crus-galli [35]): 4 (Herbicidal rate 70% or more and less than 90%)
- herbicidal effect, C: Monochoria vaginalis (Monochoria vaginalis [36]): 4 (Herbicidal rate 70% or more and less than 90%)
- herbicidal effect, B: Scirpus juncoides (Scirpus juncoides [37]): 4 (Herbicidal rate 70% or more and less than 90%)
- herbicidal effect, d: direct sown rice (direct sown rice [38]): 1 (Herbicidal rate 5% or more and less than 20%)
